Laboratory results as given in ChEMBL document CHEMBL4418276, “Boldine derivatives for promoting bone growth” (2014).

Target: T1, Sclerostin (Homo sapiens, UniProt Q9BQB4)
T1 sequence (Q9BQB4 whole entry): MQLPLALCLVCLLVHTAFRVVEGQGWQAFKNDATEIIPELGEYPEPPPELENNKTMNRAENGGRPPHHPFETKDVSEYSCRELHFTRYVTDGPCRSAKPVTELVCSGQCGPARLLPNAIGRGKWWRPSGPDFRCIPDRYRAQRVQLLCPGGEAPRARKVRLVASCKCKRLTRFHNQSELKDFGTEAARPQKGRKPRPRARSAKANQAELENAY
Test: Inhibition of sclerostin in human embryonic cells assessed as restoration of Wnt signaling by luciferase reporter gene assay
Format: cell-based

Compound: COc1cc2c(cc1OC)-c1c(OC)c(OC)c(C=O)c3c1[C@H](C2)N(C)CC3
- IC50: 1500 nM
